According to patent US12448375B2, “Kinase inhibitors for the treatment of neurodegenerative diseases” (Ohio State Innovation Foundation, priority 2019, dated 2025):

Experiments:
Type in all cases: biochemical
p38a = biological target: T1, p38a (Homo sapiens, UniProt Q16539); test: HotSpot Kinase Assay, P38a; conditions: HotSpot radiometric assay, 33P-ATP
T1 construct: purchased Reaction Biology Corp
Procedure, shortened: (§1)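 Radiometric HotSpot kinase assay in 20 mM HEPES pH 7.5 with 10 mM MgCl2, 1 mM EGTA, 0.02% Brij 35, 0.02 mg/mL BSA, 0.1 mM Na3VO4, 2 mM DTT and 1% DMSO. Cofactors were added per kinase, with the same format for all three kinases.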

MINK1 = MINK1 (Homo sapiens, UniProt Q8N4C8); test: Enzymatic kinase assay, MINK1
MINK1, sequence (Q8N4C8 whole entry): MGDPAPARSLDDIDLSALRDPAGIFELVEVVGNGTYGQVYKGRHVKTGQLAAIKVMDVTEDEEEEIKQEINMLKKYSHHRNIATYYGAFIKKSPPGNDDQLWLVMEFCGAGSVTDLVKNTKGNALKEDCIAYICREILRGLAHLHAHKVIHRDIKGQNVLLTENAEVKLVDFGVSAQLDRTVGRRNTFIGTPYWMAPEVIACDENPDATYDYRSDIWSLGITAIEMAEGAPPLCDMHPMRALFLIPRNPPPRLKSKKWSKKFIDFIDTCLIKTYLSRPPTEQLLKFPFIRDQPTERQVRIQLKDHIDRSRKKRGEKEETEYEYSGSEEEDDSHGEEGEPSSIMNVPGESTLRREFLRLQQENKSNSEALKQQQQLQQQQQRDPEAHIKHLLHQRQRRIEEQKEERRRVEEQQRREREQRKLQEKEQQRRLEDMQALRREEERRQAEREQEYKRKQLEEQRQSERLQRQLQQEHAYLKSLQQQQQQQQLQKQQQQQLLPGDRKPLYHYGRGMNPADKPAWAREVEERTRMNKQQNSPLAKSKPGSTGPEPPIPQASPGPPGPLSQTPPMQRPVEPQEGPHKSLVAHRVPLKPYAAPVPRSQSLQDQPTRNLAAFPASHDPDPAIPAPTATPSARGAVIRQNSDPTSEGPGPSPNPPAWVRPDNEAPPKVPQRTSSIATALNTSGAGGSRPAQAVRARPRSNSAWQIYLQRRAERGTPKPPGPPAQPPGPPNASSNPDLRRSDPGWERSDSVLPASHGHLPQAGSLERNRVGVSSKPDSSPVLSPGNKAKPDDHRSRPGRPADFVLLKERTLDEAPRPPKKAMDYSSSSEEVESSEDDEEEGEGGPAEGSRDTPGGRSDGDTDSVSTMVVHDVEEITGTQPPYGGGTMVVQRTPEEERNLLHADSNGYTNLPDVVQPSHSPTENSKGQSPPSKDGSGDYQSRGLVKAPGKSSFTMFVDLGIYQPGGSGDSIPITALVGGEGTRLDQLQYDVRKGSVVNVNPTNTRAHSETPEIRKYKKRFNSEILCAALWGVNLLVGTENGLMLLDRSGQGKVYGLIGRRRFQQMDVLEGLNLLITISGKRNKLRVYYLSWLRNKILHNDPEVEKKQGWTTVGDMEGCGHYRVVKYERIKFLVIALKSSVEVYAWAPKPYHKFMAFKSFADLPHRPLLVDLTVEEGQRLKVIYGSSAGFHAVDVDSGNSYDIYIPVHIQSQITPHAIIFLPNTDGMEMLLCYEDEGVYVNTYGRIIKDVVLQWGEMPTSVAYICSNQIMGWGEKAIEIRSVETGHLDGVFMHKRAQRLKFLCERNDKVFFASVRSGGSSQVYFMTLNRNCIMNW

JNK3 = biological target: T2, JNK3 (Homo sapiens, UniProt P53779); test: HotSpot Kinase Assay (Reaction Biology Corp.), anti-JNK3 activity; conditions: HotSpot radiometric assay, 33P-ATP
T2 construct: purchased Reaction Biology Corp
T2 sequence (P53779 whole entry): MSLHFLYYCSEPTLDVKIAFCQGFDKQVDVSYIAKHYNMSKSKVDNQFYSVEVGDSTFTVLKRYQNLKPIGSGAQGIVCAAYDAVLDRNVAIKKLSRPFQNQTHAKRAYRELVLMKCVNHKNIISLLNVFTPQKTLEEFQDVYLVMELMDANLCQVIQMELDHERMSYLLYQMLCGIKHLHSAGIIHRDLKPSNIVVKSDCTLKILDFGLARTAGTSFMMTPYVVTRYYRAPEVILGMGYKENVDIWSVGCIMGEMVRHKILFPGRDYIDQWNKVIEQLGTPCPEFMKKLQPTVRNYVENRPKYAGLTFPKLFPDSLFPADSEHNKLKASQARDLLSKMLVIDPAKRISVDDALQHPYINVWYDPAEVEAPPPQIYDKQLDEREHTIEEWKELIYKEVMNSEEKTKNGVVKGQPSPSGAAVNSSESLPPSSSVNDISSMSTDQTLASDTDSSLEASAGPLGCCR
Procedure, shortened: as §1

JNK1 = biological target: T3, JNK1 (Homo sapiens, UniProt P45983); test: HotSpot Kinase Assay, JNK1; conditions: HotSpot radiometric assay, 33P-ATP
T3 construct: purchased Reaction Biology Corp
T3 sequence (P45983 whole entry): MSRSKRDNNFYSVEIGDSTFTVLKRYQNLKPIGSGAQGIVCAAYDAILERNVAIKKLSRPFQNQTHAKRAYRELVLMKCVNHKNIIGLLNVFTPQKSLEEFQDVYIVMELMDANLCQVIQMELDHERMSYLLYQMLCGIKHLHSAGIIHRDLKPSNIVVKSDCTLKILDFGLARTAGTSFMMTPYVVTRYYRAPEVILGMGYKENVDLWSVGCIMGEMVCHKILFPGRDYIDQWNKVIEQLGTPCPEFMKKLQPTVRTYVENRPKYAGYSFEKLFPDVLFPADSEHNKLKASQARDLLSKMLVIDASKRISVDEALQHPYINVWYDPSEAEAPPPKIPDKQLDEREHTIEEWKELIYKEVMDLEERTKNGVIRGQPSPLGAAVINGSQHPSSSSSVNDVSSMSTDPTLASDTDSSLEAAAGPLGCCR
Procedure, shortened: as §1

TNIK = TNIK (Homo sapiens, UniProt Q9UKE5); test: Enzymatic kinase assay, TNIK
Method: [Worded in the source for another target; this target is reported under the same test.] (§2) The anti-JNK3 activity of compounds prepared as in the previous examples was evaluated using a Reaction Biology Corp. HotSpot Kinase Assay. Base reaction buffer was 20 mM HEPES (4-(2-hydroxyethyl)-1-piperazineethanesulfonic acid) at pH 7.5 with 10 mM MgCl2, 1 mM EGTA (ethylene glycol-bis(β-aminoethyl ether)-N,N,N′,N′-tetracetic acid), 0.02% Brij™ 35, 0.02 mg/mL BSA (bovine serum albumin), 0.1 mM Na3VO4, 2 mM DTT (dithiothreitol), and 1% DMSO. Required cofactors were added individually to each kinase reaction.
(§3) Kinase activity was evaluated as follows: • (1) Substrate was dissolved in freshly prepared reaction buffer • (2) Any required cofactors were dissolved in the substrate solution • (3) Kinase was added to the substrate solution followed by gentle mixing • (4) Compounds to be tested dissolved in 100% DMSO were added to the kinase reaction mixture using an Echo550 acoustic liquid handler (Labcyte, San Jose, CA) and incubated for 20 minutes at room temperature • (5) ^33P-ATP was added to the reaction mixture to initiate the kinase reaction • (6) The reaction mixture was incubated for 2 hours at room temperature • (7) Kinase activity was detected by spotting the kinase reaction on Whatman P81 paper, exposing and developing the images using a phosphorimager, and quantifying counts to determine kinase activity

HGK = HGK (Homo sapiens, UniProt O95819); test: Enzymatic kinase assay, HGK
HGK, sequence (O95819 whole entry): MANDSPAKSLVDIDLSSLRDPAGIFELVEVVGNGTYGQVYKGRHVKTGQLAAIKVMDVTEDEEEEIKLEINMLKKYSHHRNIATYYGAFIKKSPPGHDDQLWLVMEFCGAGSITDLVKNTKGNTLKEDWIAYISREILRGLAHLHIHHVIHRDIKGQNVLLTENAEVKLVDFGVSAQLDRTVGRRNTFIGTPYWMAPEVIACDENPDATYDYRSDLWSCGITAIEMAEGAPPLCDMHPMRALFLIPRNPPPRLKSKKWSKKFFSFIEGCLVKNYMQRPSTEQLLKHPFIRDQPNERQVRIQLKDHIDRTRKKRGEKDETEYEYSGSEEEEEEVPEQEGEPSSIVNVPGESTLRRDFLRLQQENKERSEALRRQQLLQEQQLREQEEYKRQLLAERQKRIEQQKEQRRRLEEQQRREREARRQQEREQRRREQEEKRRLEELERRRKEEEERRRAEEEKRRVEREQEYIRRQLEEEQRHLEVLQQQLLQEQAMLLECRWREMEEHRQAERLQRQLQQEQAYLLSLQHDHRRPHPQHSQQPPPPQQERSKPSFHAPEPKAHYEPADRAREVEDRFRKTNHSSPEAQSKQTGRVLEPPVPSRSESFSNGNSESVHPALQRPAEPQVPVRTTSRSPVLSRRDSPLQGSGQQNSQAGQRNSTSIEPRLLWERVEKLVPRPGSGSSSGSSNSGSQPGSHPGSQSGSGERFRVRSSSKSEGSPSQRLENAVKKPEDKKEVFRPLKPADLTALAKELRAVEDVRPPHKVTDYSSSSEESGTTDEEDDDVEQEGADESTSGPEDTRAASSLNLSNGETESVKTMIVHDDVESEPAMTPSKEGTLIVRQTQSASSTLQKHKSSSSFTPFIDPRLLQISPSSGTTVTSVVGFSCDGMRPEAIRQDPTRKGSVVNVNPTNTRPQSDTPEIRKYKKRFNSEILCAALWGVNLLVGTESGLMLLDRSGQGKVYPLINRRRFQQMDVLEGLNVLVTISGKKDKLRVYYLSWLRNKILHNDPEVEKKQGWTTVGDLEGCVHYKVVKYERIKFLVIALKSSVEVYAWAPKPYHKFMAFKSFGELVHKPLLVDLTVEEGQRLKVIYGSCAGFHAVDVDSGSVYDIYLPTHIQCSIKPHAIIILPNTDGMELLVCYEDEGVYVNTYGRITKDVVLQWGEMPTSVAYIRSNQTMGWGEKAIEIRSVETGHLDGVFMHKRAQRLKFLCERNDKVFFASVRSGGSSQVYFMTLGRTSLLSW
Method: [Worded in the source for another target; this target is reported under the same test.] as §2, §3

DDR1 = DDR1 (Homo sapiens, UniProt Q08345); test: Enzymatic kinase assay, DDR1
Method: [Worded in the source for another target; this target is reported under the same test.] as §2, §3

Abl-1 = Abl-1 (Homo sapiens, UniProt P00519); test: Enzymatic kinase assay, Abl-1
Abl-1, sequence (P00519 whole entry): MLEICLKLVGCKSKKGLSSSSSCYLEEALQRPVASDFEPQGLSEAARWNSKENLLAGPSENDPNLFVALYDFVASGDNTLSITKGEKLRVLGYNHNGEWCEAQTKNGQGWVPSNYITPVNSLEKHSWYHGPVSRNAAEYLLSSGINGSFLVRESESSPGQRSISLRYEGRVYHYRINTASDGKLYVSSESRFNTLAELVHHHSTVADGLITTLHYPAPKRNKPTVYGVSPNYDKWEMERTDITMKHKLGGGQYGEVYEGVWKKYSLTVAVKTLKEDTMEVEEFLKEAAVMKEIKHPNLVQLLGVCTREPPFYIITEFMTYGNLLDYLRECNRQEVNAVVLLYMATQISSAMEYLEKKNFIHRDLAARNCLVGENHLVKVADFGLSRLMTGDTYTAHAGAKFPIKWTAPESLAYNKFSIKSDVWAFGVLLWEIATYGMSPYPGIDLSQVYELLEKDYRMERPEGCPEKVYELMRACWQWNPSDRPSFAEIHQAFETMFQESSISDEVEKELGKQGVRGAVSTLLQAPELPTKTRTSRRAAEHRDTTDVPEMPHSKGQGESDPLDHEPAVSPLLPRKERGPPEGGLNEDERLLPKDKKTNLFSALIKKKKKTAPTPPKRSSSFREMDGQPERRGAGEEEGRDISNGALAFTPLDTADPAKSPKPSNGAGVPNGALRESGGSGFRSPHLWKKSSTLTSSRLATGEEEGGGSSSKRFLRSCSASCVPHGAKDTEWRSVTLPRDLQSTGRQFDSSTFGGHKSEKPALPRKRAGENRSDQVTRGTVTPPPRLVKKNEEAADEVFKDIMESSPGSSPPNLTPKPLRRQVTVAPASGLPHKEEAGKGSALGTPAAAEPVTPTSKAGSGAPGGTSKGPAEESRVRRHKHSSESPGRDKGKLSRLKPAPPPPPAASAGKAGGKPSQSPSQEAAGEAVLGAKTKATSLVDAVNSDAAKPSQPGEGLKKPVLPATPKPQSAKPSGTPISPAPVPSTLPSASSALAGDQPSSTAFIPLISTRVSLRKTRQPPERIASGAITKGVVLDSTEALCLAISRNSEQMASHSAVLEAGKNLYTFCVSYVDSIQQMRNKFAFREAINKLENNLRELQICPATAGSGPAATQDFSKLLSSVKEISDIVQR
Method: [Worded in the source for another target; this target is reported under the same test.] as §2, §3

T1 sequence (Q16539 whole entry): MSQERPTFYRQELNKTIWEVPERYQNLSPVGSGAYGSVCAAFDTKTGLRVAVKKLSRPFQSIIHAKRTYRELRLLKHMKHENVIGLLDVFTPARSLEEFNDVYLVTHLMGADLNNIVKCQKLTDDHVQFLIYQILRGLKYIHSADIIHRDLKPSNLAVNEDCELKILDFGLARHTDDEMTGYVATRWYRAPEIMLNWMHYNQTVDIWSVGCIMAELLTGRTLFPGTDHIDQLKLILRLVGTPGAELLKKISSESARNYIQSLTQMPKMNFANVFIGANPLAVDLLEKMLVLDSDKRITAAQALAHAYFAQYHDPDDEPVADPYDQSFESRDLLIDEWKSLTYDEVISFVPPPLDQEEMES

SMILES	IC50 (p38a) [µM]	IC50 (MINK1) [µM]	IC50 (JNK3) [µM]	IC50 (JNK1) [µM]	IC50 (TNIK) [µM]	IC50 (HGK) [µM]	IC50 (DDR1) [µM]	IC50 (Abl-1) [µM]
CNC(=O)c1cc(-n2ncc3cc(Nc4cccc(C)c4Cl)ncc32)cs1 [Compound 25, 4-(5-((2-chloro-3-methylphenyl)amino)-1H-pyrazolo[3,4-c]pyridin-1-yl)-N-methylthiophene-2-carboxamide]	0.2 to 1	< 0.2	< 0.2	0.2 to 1	< 0.2	< 0.2	–	–
CN1CCN=C1NC(=O)c1cc(-n2ncc3nc(Nc4ccccc4Cl)ccc32)cs1 [Compound 58, 4-(5-((2-chlorophenyl)amino)-1H-pyrazolo[4,3-b]pyridin-1-yl)-N-(1-methyl-4,5-dihydro-1H-imidazol-2-yl)thiophene-2-carboxamide]	> 1	< 0.2	< 0.2	> 1	< 0.2	< 0.2	< 0.2	> 1
CNC(=O)c1cc(-n2ncc3cc(Nc4c(F)cccc4Cl)c(OC)cc32)cs1 [Compound 91, 4-(5-((2-chloro-6-fluorophenyl)amino)-6-methoxy-1H-indazol-1-yl)-N-methylthiophene-2-carboxamide]	0.2 to 1	0.2 to 1	< 0.2	> 1	< 0.2	< 0.2	< 0.2	0.2 to 1
CNC(=O)c1cc(-n2ncc3cc(Nc4c(F)cccc4OC)ccc32)cs1 [Compound 93, 4-(5-((2-fluoro-6-methoxyphenyl)amino)-1H-indazol-1-yl)-N-methylthiophene-2-carboxamide]	0.2 to 1	–	< 0.2	> 1	–	–	0.2 to 1	–
CNC(=O)c1cc(-n2ncc3cc(Nc4c(Cl)cccc4OC)ncc32)cs1 [Compound 108, 4-(5-((2-chloro-6-methoxyphenyl)amino)-1H-pyrazolo[3,4-c]pyridin-1-yl)-N-methylthiophene-2-carboxamide]	0.2 to 1	< 0.2	< 0.2	> 1	< 0.2	< 0.2	0.2 to 1	> 1
COc1cccc(Cl)c1Nc1cc2cnn(-c3csc(C(=O)NC4COC4)c3)c2nc1C [Compound 110, 4-(5-((2-chloro-6-methoxyphenyl)amino)-6-methyl-1H-pyrazolo[3,4-b]pyridin-1-yl)-N-(oxetan-3-yl)thiophene-2-carboxamide]	0.2 to 1	> 1	< 0.2	> 1	0.2 to 1	> 1	> 1	> 1
